Results: US8877766B2, “Neuroprotective multifunctional antioxidants and their monofunctional analogs” (priority 2013, dated 2014)

How the values were obtained:
[1] = test system: SH-SY5Y neuroblastoma cells; test: Cell viability study, MTS Cell Titer 96 Aqueous One Solution assay; conditions: 1 mM compound in 0.16% DMSO
Procedure: (§5) The in vitro cell viability studies were conducted as previously described using SH-SY5Y neuroblastoma cells (ATCC) and cultured according to ATCC procedures in 1:1 Eagles minimum essential medium with Earle's balanced salt solution and Ham's F12 (EMEM-F12) media containing (10% fetal bovine serum (FBS)) at 37° C. under a 5% CO2 atmosphere. Cell viability studies were conducted over a 24 hour period in 96-well plates using the Cell Titer 96® Aqueous One Solution Cell Proliferation Assay (MTS, Promega, Madison, Wis.) with 1 mM of each compound or clioquinol (PBT1) dissolved in 0.16% DMSO. […] This is a colorimetric method for determining the number of viable cells in proliferation or cytotoxicity assays where the One Solution contains MTS (3-(4,5-dimethylthiazol-2-yl)-5-(3-carboxymethoxyphenyl)-2-(4-sulfophenyl)-2H-tetrazolium), in the presence of phenazine methosulfate (PMS). The MTS compound is bioreduced by cells into a colored formazan product and, as measured by the amount of 490 nm absorbance, is directly proportional to the number of living cells in culture. […] The protective effect of these compounds against H2O2 and hydroxyl radical generated by the Fenton reaction were examined.

[2] = test system: SH-SY5Y neuroblastoma cells; test: Superoxide assay, MitoSOX Red, xanthine oxidase generated superoxide; assay type: cell-based, human; conditions: xanthine oxidase 25 mU/mL
Procedure: The ability of the HK series of multifunctional and monofunctional antioxidant compounds to specifically reduce superoxide radicals in live cells was assessed in both SH-SY5Y neuroblastoma cells and ARPE-19 retinal pigmented epithelial cells. The production of superoxide by mitochondria was visualized with fluorescence microscopy using the MitoSOX™ Red reagent (Invitrogen Life Sciences, Grand Island, N.Y.), which permeates live cells, where it selectively targets mitochondria. It is rapidly oxidized by superoxide, but not by other reactive oxygen species (ROS) and reactive nitrogen species (RNS). The oxidized product is highly fluorescent upon binding to nucleic acid. […] The cell media was then removed from each well, and the wells were washed with PBS. Compounds (HK series and JHX series and antioxidant standards (Hydroquinone (HQ), Trolox (T), Vitamin E (VE), Vitamin C (VC)) dissolved in DMSO (10 μL) were then added to each well, along with fresh media (140 μL) without serum albumin (FBS). Superoxide dismutase (SOD, 500 μg/mL, 10 μL) was used as an additional control, and cells in all groups (controls, drug treated, and SOD treated groups) were exposed to the same amounts of DMSO. After addition, the cells were incubated at 37° C. under a 5% CO2 atmosphere for 1 hr. Xanthine oxidase (XO), was then added (25 mU/mL) to generate approximately 100 μM superoxide, and culture continued for an additional hour. The media was then again removed, and the cells were washed with PBS. Finally, the cells were stained with 100 μL of the MitoSOX Red reagent (5 μM), and 2 hr after further incubation, the fluorescence of each well was measured using fluorescent microplate reader at Ex/Em=510/580 nm.

[3] = test system: ARPE-19 retinal pigmented epithelial cells; test: LIVE/DEAD Viability/Cytotoxicity Assay, hydroxyl radical (Fenton reagent) induced cell death; assay type: cell-based, human; conditions: ARPE-19, 2 hours exposure to Fenton reagent
Procedure: (§1) The ability of the HK series of multifunctional antioxidant compounds to specifically protect against hydroxyl radical-induced cell death was assessed in both SH-SY5Y neuroblastoma cells and ARPE-19 retinal pigmented epithelial cells using the LIVE/DEAD® Viability/Cytotoxicity Assay (Invitrogen Life Sciences, Grand Island, N.Y.). The cells were seeded into 96-well plates and grown in standard media (1:1 EMEM-F12 media containing 10% FBS for the human SH-SY5Y neuroblastoma cells, or DMEM containing 4% FBS for the human ARPE-19 retinal pigmented epithelial cells), at 37° C. under a 5% CO2 atmosphere until 80% confluence was achieved (ca. 24 hr). The media was then removed, and the cells were washed with PBS. Compounds (HK series and JHX series or antioxidant standards (Hydroquinone (HQ), Trolox (T), Vitamin E (VE), Vitamin C (VC)) dissolved in DMSO (10 μL) were again added to the cells, along with the appropriate media without FPS. Following a 1 hr incubation at 37° C. under a 5% CO2 atmosphere, Fenton reagents (Fe^2+ and hydrogen peroxide dissolved in appropriate media without FBS to give a final concentration of 100 μM) were added to each well, and incubation continued. After 2 hr of incubation with Fenton reagent, the media was removed and the cells were washed with PBS. The cells were stained with 100 μL of the LIVE/DEAD reagent containing calcein AM (AM, 8 μM for NB) and ethidium homodimer-1 (EthD-1, 16 μM for NB) for 1 hr at 37° C. The fluorescence of each well was measured using a fluorescent microplate reader at Ex/Em=494/517 nm (Fsam for LIVE Cells) and Ex/Em=528/617 nm (Fsam for DEAD Cells). The fluorescence of control samples was also measured as follows: Fmax for LIVE Cells (The fluorescence at Ex/Em=494/517 nm in live cells samples labeled with AM only); Fmin for LIVE Cells (The fluorescence at Ex/Em=494/517 nm in live cells samples labeled with EthD-1 only); Fmax for DEAD Cells (The fluorescence at Ex/Em=528/617 nm in dead cells samples labeled with EthD-1 only); Fmin for DEAD Cells (The fluorescence at Ex/Em=528/617 nm in dead cells samples labeled with AM only); Blank 494/517 (The fluorescence at Ex/Em=494/517 nm without dye and cells); Blank 528/617 (The fluorescence at Ex/Em=528/617 nm without dye and cells). For the dead cells control, the cells were incubated with 70% of ethanol for 30 min at 37° C. The percentage of live cells was calculated from the fluorescence readings using the equation
(§2) [formula] The percentage of dead cells was calculated from the fluorescence readings using the equation: […]

[4] = test system: SH-SY5Y neuroblastoma cells; test: as above; assay type: cell-based, human; conditions: 2 hours exposure to Fenton reagent
Procedure: as §1, §2

[5] = test system: SH-SY5Y neuroblastoma cells; test: Mitochondrial viability/toxicity, rhodamine 123 staining with or without MnCl2; assay type: cell-based, human; conditions: 1 mM drug, 1 mM MnCl2
Procedure: The laser dye rhodamine 123 is shown to be a specific probe for the localization of mitochondria in living cells. Because of its selectivity for mitochondria, this stain can be used to probe alterations in mitochondria induced by drugs. Therefore, studies were conducted to determine whether MFAOs can adversely alter mitochondrial function through their ability chelate transition metals.
Human SH-SY5Y neuroblastoma cells were seeded into 8-well microscope plates (BD Falcon, 800μ-slides), and the cells were incubated in EMEM-F12 media containing 10% FBS at 37° C. under a 5% CO2 atmosphere. Once the cells were approximately 80% confluent in each well, the media was removed and the cells were washed with PBS. The cells were then pre-incubated for 1 hour at 37° C. under a 5% CO2 atmosphere with 200 μL of HBSS medium without FBS containing drug JHX-1, -4, -5, -8, HK-2, -4, -9, -11, or Clioquinol dissolved in DMSO, so that final drug concentrations of 1 mM in 4% DMSO were achieved. Then MnCl2 was added to the appropriate cells groups to give a final concentration of 1 mM, and the groups were cultured for an additional 2 hours. After the […] exposure to manganese, the media was removed and the cells were washed with PBS. The cells were then stained with 100 μL of the fluorescent dye rhodamine 123 (Rh123) (20 μM) and Hoechst 33342 (8 μM) per well at 37° C., 5% CO2 for 30 min. […]

[6] = test system: ARPE-19 retinal pigmented epithelial cells; test: Zinquin analysis of cellular labile zinc after exposure to Aβ1-42/Zn complex; assay type: cell-based, human; conditions: ARPE-19, 10 μM drug
Procedure: (§3) The ability of MFAOs to release zinc from amyloid beta/zinc complex was investigated using […] from American Peptide Company, Inc. (Vista, Calif.). The Aβ1-42/Zn complex was prepared as follow. ZnSO4 solution (200 μM) and Aβ1-42 (200 μM) were mixed together and incubated at 37° C. After 48 hr incubation, the mixture was centrifuged at 14000×g, 3 min to pellet the aggregated Aβ1-42. The aggregated Aβ1-42 was then resuspended in water or 200 μM of drugs. The complex was diluted with Hank's Balanced Saline Solution (HBSS) to give a final 10 μM concentration for each component. This complex was then used in the following studies employing human SH-SY5Y neuroblastoma and ARPE-19 pigmented epithelial cells. The studies were repeated 2-4 times.
(§4) Human SH-SY5Y neuroblastoma cells were seeded into 8-well microscope plates (BD Falcon, 800μ-slides), and the cells were incubated in EMEM-F12 media containing 10% FBS at 37° C. under a 5% CO2 atmosphere. Once the cells were approximately 80% confluent in each well, the media was removed, and the cells were washed with phosphate buffered saline (PBS). […] The zinquin fluorescence was then measured in the fixed cells by confocal fluorescence microscopy using a DAPI (4′,6-diamidino-2-phenylindole) DAPI filter set to assess the cellular compartmentalization of zinc. […]

[7] = test system: SH-SY5Y neuroblastoma cells; test: as above; assay type: cell-based, human; conditions: 10 μM drug
Procedure: as §3, §4

[8] = test system: SH-SY5Y neuroblastoma cells; test: Protective effect against H2O2 and Fenton-generated hydroxyl radical, MTS cell viability; assay type: cell-based, human; conditions: versus DMSO control
Procedure: as §5

[9] = test system: ARPE-19 RPE cells; test: Mitochondrial viability/toxicity, rhodamine 123 staining with or without MnCl2; assay type: cell-based, human; conditions: ARPE-19, 1 mM drug, 1 mM MnCl2
[10] = test system: diabetic cataract; conditions: diabetic rats; cited from earlier work
[11] = test system: light-induced retinal damage; conditions: rats; cited from earlier work
[12] = test system: radiation cataract; conditions: Long-Evans rats, 15 Gy whole head gamma irradiation; cited from earlier work

## O=C1CCCC(=O)N1c1ncc(O)cn1 [HK-6, 1-(5-hydroxy-2-pyrimidyl)piperidine-2,6-dione]
[1]
  decrease in 24 hr cell viability compared to DMSO treated cells: approximately 20%

## COc1cc(OC)nc(N2C(=O)CCC2=O)n1 [HK-3, 1-(4,6-dimethoxy-2-pyrimidyl)pyrrolidine-2,5-dione]
[2]
  reduction of superoxide radical: did not

## O=C1CCC(=O)N1c1ncccn1 [HK-1, 1-(2-pyrimidyl)pyrrolidine-2,5-dione]
[2]
  reduction of superoxide radical: did not

## COc1cc(OC)nc(N2C(=O)CCCC2=O)n1 [HK-7, 1-(4,6-dimethoxy-2-pyrimidyl)piperidine-2,6-dione]
[2]
  reduction of superoxide radical: did not

## COc1nc(N2CCCCC2)nc(OC)c1O [HK-16, 5-hydroxy-4,6-dimethoxy-2-(piperidine-1-yl)pyrimidine]
[2]
  reduction of superoxide radical: demonstrated protection
[3]
  protection against hydroxyl radical (live/dead cells): dose-dependent protection

## Cc1c(C)c2c(c(C)c1O)CCC(C)(C(=O)O)O2 (centres unmarked) [Trolox, reference compound]
[1]
  decrease in 24 hr cell viability compared to DMSO treated cells: approximately 20%

## Oc1cnc(N2CCCCC2)nc1 [HK-14, 5-hydroxy-2-(piperidine-1-yl)pyrimidine]
[2]
  reduction of superoxide radical: demonstrated protection
[3]
  protection against hydroxyl radical (live/dead cells): dose-dependent protection

## O=C1CCCC(=O)N1c1ncccn1 [HK-5, 1-(2-pyrimidyl)piperidine-2,6-dione]
[2]
  reduction of superoxide radical: did not

## COc1nc(N2CCCC2)nc(OC)c1O [HK-12, 5-hydroxy-4,6-dimethoxy-2-(pyrrolidine-1-yl)pyrimidine]
[2]
  reduction of superoxide radical: demonstrated protection
[3]
  protection against hydroxyl radical (live/dead cells): dose-dependent protection

## O=C1CCC(=O)N1c1ncc(O)cn1 [HK-2, 1-(5-hydroxy-2-pyrimidyl)pyrrolidine-2,5-dione]
[1]
  decrease in 24 hr cell viability compared to DMSO treated cells: approximately 20%

## COc1cc(OC)nc(N2CCCC2)n1 [HK-11, 4,6-dimethoxy-2-(pyrrolidine-1-yl)pyrimidine]
[2]
  reduction of superoxide radical: no effect
[4]
  protection against hydroxyl radicals (live/dead cells): no effect

## Oc1c(I)cc(Cl)c2cccnc12 [clioquinol]
[5]
  loss of rhodamine 123 staining after MnCl2: not observed
[6]
  labile zinc (zinquin staining) in presence of aggregated Aβ1-42/Zn complex: maintain labile zinc levels
[1]
  decrease in 24 hr cell viability compared to DMSO treated cells: 50%
[7]
  labile zinc (zinquin staining) in presence of aggregated Aβ1-42/Zn complex: maintain labile zinc levels
[8]
  cell viability in the Fenton reaction: lower than DMSO control
[9]
  loss of rhodamine 123 staining after MnCl2: not observed

## c1cnc(N2CCCC2)nc1 [HK-9, 2-(pyrrolidine-1-yl)pyrimidine]
[2]
  reduction of superoxide radical: no effect
[4]
  protection against hydroxyl radicals (live/dead cells): no effect

## Oc1cnc(N2CCCC2)nc1 [HK-10, 5-hydroxy-2-(pyrrolidine-1-yl)pyrimidine]
[2]
  reduction of superoxide radical: demonstrated protection
[3]
  protection against hydroxyl radical (live/dead cells): dose-dependent protection

## COc1nc(N2C(=O)CCCC2=O)nc(OC)c1O [HK-8, 1-(4,6-dimethoxy-5-hydroxy-2-pyrimidyl)piperidine-2,6-dione]
[1]
  decrease in 24 hr cell viability compared to DMSO treated cells: 30%

## CN(C)S(=O)(=O)N1CC(=O)N(c2ncc(O)cn2)C(=O)C1 [JHX-4]
[10]
  progression of cataracts: delayed the progression of cataracts
[11]
  protection against light-induced retinal damage: protects rats against light-induced retinal damage
[12]
  cataract formation after irradiation: significantly delayed cataract formation
